Laboratory results taken from US20220363665A1, “QUINOLINE COMPOUNDS FOR THE TREATMENT OF AUTOIMMUNE DISEASE” (Hoffmann-La Roche Inc., priority 2019, published 2022).

molecular target: T1, CYP2C9 (Homo sapiens, UniProt P11712); test: CYP inhibition assay in human liver microsome, CYP2C9; assay type: in vitro ADME; settings: human, liver microsomes, probe diclofenac, HLM, diclofenac substrate, read-out: CYP inhibition % @10 uM (2C9)
T1 construct: tissue BD-Gentest 452117; host or cells: human liver microsomes
T1 sequence (P11712 whole entry): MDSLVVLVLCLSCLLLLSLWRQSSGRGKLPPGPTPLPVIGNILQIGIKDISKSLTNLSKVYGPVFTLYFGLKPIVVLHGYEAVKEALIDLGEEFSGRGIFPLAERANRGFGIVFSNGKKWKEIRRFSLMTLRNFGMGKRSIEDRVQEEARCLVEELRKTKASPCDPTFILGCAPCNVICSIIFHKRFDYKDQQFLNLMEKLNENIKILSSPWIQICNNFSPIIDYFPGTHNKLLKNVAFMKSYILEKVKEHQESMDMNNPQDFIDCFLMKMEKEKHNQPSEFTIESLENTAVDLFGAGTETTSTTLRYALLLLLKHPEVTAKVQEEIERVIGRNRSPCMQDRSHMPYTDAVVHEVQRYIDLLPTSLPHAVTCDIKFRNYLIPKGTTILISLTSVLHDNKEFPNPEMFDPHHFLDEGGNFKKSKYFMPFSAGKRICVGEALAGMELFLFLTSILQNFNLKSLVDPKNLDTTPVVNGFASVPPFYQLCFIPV
Procedure: This is a high throughput screening assay used for assessment of reversible inhibition of CYP2C9, CYP2D6, and CYP3A4 activity of test compounds in human liver microsome (HLM) in early discovery stage.
10 mM DMSO stock solutions of test compounds were diluted in DMSO to generate 2 mM intermediate stock solution. 250 nL of intermediate stock solution were transferred in duplicate into 3 separate 384 well microtitre plates (assay-ready plates). A mixture of HLM and each substrate was made up. 45 μL of HLM substrate mix was then transferred to each well of an assay ready plate and mixed. The negative (solvent) and positive controls (standard inhibitor for each CYP) were included in each assay ready plate. The assay ready plate was warmed to 37° C. in an incubator over 10 minutes. 5 μL pre-warmed NADPH regenerating system was added to each incubation well to start the reaction. Final incubation volume was 50 μL. The assay plate then was placed back in the 37° C. incubator. After 5 minutes incubation (10 minutes for CYP2D6), incubates were quenched by addition of 50 μL quench reagent containing internal standards (400 ng/mL 13C6-4′-OH-Diclofenac, 20 ng/mL D3-Dextrorphan and 20 ng/mL D4-1′OH-Midazolam in acetonitrile). The supernatants were collected for RapidFire/MS/MS analysis.
RapidFire online solid phase extraction/sample injection system (Agilent) coupled with API4000 triple quadrupole mass spectrometer (AB Sciex) were used for sample analysis. The mobile phase composed of acetonitrile and water supplemented with 0.1% formic acid. A C4 solid phase extraction cartridge is used for sample separation. MS detection is achieved in positive ion MRM mode.
Peak areas for substrate, metabolite and internal standard are determined using the
RapidFire integrator software (version 3.6.12009.12296). Peak area ratios (PAR) of metabolite and internal standard (stable-labelled metabolite) are then calculated. The measurement window for each experiment is then defined:
PAR (0% activity)=average PAR for all incubations containing concentrated inhibitor;
Par (100% activity)=average PAR for all incubations containing no inhibitor (DMSO controls);
% Activity (test inhibitor) =[PAR(test inhibitor)-PAR(0% activity)][PAR(100% activity)-PAR(0% activity)];
% Inhibition (test inhibitor)=100-% Activity (test inhibitor).
Percentage inhibition data are then reported, in duplicate, for the 3 CYP enzymes.

Row | inhibition at 5 min, 10 µM | SMILES
1 | -7% | C[C@@H]1CN(c2ccc(I)c3ncccc23)C[C@H](C(=O)NCC2CN(C)CCO2)O1 (stereo partly drawn) [Example 39, (2R,6R)-4-(8-iodo-5-quinolyl)-6-methyl-N-[(4-methylmorpholin-2-yl)methyl]morpholine-2-carboxamide]

molecular target: T2, human TLR9 (Homo sapiens, UniProt Q9NR96); test: HEK293-Blue-hTLR-9 cells assay (SEAP reporter, ODN2006 stimulation); assay type: cell-based; settings: HEK293-Blue-hTLR9 cells, ODN2006, 20 hrs
T2 construct: host or cells: HEK293 (HEK-Blue hTLR9)
T2 sequence (Q9NR96 26-1032): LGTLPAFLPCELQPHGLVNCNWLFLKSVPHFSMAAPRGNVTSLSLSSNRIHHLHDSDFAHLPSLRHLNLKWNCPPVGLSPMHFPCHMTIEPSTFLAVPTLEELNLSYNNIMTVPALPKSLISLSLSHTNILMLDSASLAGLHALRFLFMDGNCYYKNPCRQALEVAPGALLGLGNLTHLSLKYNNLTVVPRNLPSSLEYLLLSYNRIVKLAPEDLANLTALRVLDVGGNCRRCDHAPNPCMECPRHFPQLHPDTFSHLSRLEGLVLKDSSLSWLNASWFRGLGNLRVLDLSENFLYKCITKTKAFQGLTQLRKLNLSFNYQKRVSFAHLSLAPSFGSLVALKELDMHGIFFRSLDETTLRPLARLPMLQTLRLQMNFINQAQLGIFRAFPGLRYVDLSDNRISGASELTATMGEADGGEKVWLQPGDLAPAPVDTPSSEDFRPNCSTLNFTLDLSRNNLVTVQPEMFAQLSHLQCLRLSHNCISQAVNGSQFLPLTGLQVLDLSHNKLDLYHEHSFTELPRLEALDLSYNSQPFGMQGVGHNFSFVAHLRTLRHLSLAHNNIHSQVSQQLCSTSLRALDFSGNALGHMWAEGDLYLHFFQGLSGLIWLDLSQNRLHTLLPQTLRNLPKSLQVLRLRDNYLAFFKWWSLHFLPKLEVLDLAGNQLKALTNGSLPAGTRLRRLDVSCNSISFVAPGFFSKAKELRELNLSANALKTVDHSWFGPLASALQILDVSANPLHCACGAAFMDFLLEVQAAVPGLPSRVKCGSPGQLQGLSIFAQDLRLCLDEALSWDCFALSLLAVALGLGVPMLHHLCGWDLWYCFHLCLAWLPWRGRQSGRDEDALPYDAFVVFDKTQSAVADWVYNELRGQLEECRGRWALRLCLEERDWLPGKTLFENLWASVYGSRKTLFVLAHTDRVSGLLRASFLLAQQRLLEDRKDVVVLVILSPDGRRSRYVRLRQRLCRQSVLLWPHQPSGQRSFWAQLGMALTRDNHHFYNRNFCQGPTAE
Procedure: The following tests were carried out in order to determine the activity of the compounds of formula (I) in HEK293-Blue-hTLR-7/8/9 cells assay.
HEK293-Blue-hTLR-9 Cells Assay:
A stable HEK293-Blue-hTLR-9 cell line was purchased from InvivoGen (Cat. #. hkb-htlr9, San Diego, Calif., USA). These cells were originally designed for studying the stimulation of human TLR9 by monitoring the activation of NF-κB. A SEAP (secreted embryonic alkaline phosphatase) reporter gene was placed under the control of the […] minimal promoter fused to five NF-κB and AP-1-binding sites. The SEAP was induced by activating NF-κB and AP-1 via stimulating HEK-Blue hTLR9 cells with TLR9 ligands. Therefore the reporter expression was declined by TLR9 antagonist under the stimulation of a ligand, such as ODN2006 (Cat. #: tlrl-2006-1, Invivogen, San Diego, Calif., USA), for incubation of 20 hrs. The cell culture supernatant SEAP reporter activity was determined using QUANTI-Blue™ kit (Cat. #: rep-qbl, Invivogen, San Diego, Calif., USA) at a wavelength of 640 nm, a detection medium that turns purple or blue in the presence of alkaline phosphatase.
HEK293-Blue-hTLR9 cells were incubated at a density of […] cells/mL in a volume of 170 μL, in a 96-well plate in Dulbecco's Modified Eagle's medium (DMEM) containing 4.5 g/L glucose, 50 U/mL penicillin, […], […], 2 mM L-glutamine, 10% (v/v) heat-inactivated fetal bovine serum with addition of 20 μL test compound in a serial dilution in the presence of final DMSO at 1% and 10 μL of 20 uM ODN2006 in above DMEM, perform incubation under 37° C. in a CO2 incubator for 20 hrs. Then 20 μL of the supernatant from each well was incubated with 180 μL Quanti-blue substrate solution at 37° C. for 2 hrs and the absorbance was read at 620˜655 nm using a spectrophotometer. The signalling pathway that TLR9 activation leads to downstream NF-κB activation has been widely accepted, and therefore similar reporter assay was modified for evaluating TLR9 antagonist.

Row | SMILES | IC50
2 | C[C@@H]1CN(c2ccc(C(F)(F)F)c3ncccc23)C[C@H](C(=O)NC2CNC[C@@H]2F)O1 (stereo partly drawn) [Example 2, cis-(2R,6R)-N-(4-fluoropyrrolidin-3-yl)-6-methyl-4-[8-(trifluoromethyl)-5-quinolyl]morpholine-2-carboxamide] | 51.8 µM
3 | C[C@@H]1CN(c2ccc(I)c3ncccc23)C[C@H](C(=O)NCC2CN(C)CCO2)O1 (stereo partly drawn) [Example 39, (2R,6R)-4-(8-iodo-5-quinolyl)-6-methyl-N-[(4-methylmorpholin-2-yl)methyl]morpholine-2-carboxamide] | 35.8 µM
4 | C[C@@H]1CN(c2ccc(C(F)(F)F)c3ncccc23)C[C@H](C(=O)NC2CC3CCC(C2)N3)O1 (single isomer, unassigned) [Example 47A] | 10.1 µM
5 | C[C@@H]1CN(c2ccc(C(F)(F)F)c3ncccc23)C[C@H](C(=O)NC2CC3CCC(C2)N3)O1 (single isomer, unassigned) [Example 47B] | 10.5 µM
6 | C[C@@H]1CN(c2ccc(C(F)(F)F)c3ncccc23)C[C@H](C(=O)NCC2CNCC2(F)F)O1 (stereo partly drawn) [Example 29, (2R,6R)-N-[(4,4-difluoropyrrolidin-3-yl)methyl]-6-methyl-4-[8-(trifluoromethyl)-5-quinolyl]morpholine-2-carboxamide] | > 100 µM
7 | C[C@@H]1CN(c2ccc(C(F)(F)F)c3ncccc23)C[C@H](C(=O)NC2CC3COCC(C2)N3)O1 (stereo partly drawn) [Example 33, (2R,6R)-6-methyl-N-(3-oxa-9-azabicyclo[3.3.1]nonan-7-yl)-4-[8-(trifluoromethyl)-5-quinolyl]morpholine-2-carboxamide] | 23.6 µM
8 | C[C@@H]1CN(c2ccc(C(F)(F)F)c3ncccc23)C[C@H](C(=O)N[C@H]2CNC[C@H]2F)O1 (single isomer, unassigned) [Example 2B] | 34.6 µM
9 | C[C@@H]1CN(c2ccc(Cl)c3ncccc23)C[C@H](C(=O)N[C@H]2CNC[C@H]2F)O1 [Example 22, (2R,6R)-4-(8-chloro-5-quinolyl)-N-[(3S,4R)-4-fluoropyrrolidin-3-yl]-6-methyl-morpholine-2-carboxamide] | 37 µM
10 | C[C@@H]1CN(c2ccc([N+](=O)[O-])c3ncccc23)C[C@H](C(=O)N[C@@H]2CNC[C@@H]2F)O1 [Example 19, cis-(2R,6R)-N-[41-fluoropyrrolidin-3-yl]-6-methyl-4-(8-nitro-5-quinolyl)morpholine-2-carboxamide] | 50.7 µM
11 | Cc1ccc(N2C[C@@H](C)O[C@@H](C(=O)N[C@@H]3CNC[C@@H]3F)C2)c2cccnc12 [Example 21, cis-(2R,6R)-N-14-fluoropyrrolidin-3-yl1-6-methyl-4-(8-methyl-5-quinolyl)morpholine-2carboxamide] | 38 µM
12 | C[C@@H]1CN(c2ccc(C(F)(F)F)c3ncccc23)C[C@H](C(=O)N2CC(N)C2)O1 [Example 7, (3-aminoazetidin-1-yl)-[(2R,6R)-6-methyl-4-[8-(trifluoromethyl)-5-quinolyl]morpholin-2-yl]methanone] | 68.5 µM
13 | C[C@@H]1CN(c2ccc(Br)c3ncccc23)C[C@H](C(=O)NC2CNCC2F)O1 (stereo partly drawn) [Example 41, cis-(2R,6R)-4-(8-bromo-5-quinolyl)-N-[4-fluoropyrrolidin-3-yl]-6-methyl-morpholine-2-carboxamide] | 23.2 µM

The remaining lines, values ahead:

Row | IC50 | SMILES
14 | 9.7 µM | C[C@H]1C[C@@H](N)CN(c2ccc(C(F)(F)F)c3ncccc23)C1 [Example 1, (3R,5S)-5-methyl-1-[8-(trifluoromethyl)-5-quinolyl]piperidin-3-amine]
15 | 11.7 µM | C[C@@H]1CN(c2ccc(C(F)(F)F)c3ncccc23)C[C@H](C(=O)NCC2CNCCO2)O1 (stereo partly drawn) [Example 48, (2R,6R)-6-methyl-N-(morpholin-2-ylmethyl)-4-[8-(trifluoromethyl)-5-quinolyl]morpholine-2-carboxamide]
16 | 11.6 µM | C[C@@H]1CN(c2ccc(C(F)(F)F)c3ncccc23)C[C@H](C(=O)NC2C3CCCC2CNC3)O1 (stereo partly drawn) [Example 45, (2R,6R)-N-(3-azabicyclo[3.3.1]nonan-9-yl)-6-methyl-4-[8-(trifluoromethyl)-5-quinolyl]morpholine-2-carboxamide]
17 | 15.7 µM | C[C@@H]1CN(c2ccc(C(F)(F)F)c3ncccc23)C[C@H](C(=O)NC2C[C@H]3C[C@@H]2CN3)O1 (stereo partly drawn) [Example 44]
18 | 23 µM | C[C@@H]1CN(c2ccc(C(F)(F)F)c3ncccc23)C[C@H](C(=O)NC2C3CNCC2COC3)O1 (single isomer, unassigned) [Example 46A]
19 | 22.4 µM | C[C@@H]1CN(c2ccc(I)c3ncccc23)C[C@H](C(=O)NC2CNCC2F)O1 (stereo partly drawn) [Example 40, cis-(2R,6R)-N-[4-fluoropyrrolidin-3-yl]-4-(8-iodo-5-quinolyl)-6-methyl-morpholine-2-carboxamide]
20 | 15.3 µM | C[C@@H]1CN(c2ccc(C(F)(F)F)c3ncccc23)C[C@H](C(=O)NC2C3CNCC2COC3)O1 (single isomer, unassigned) [Example 46B]
21 | 12.3 µM | C#Cc1ccc(N2C[C@@H](C)O[C@@H](C(=O)NC3CCN(C)CC3)C2)c2cccnc12 [Example 43, (2R,6R)-4-(8-ethynyl-5-quinolyl)-6-methyl-N-(1-methyl-4-piperidyl)morpholine-2-carboxamide]
